Square brackets hold non-standard residues; d marks the D form. Ends that are not written are not given here.

The test system of one assay is mouse ADAMTS7. The experiment in a line: TMT10 TAILS N-terminomics, SMC2 experiment (process replicates, trypsin/AspN digest). Type of assay: cell-based. The conditions noted are these: SMC2_TAILS HC; log fold change of N-terminal peptide, Ad-mADAMTS7 WT over EQ. The source says:
ADAMTS7 Expression, Cell Culture and Preparation of the Secreted Proteins—Full-length mouse Adamts7 1-1857 (Uniprot Q68SA9, WT or E373Q catalytic mutant) with a carboxyl terminal 3xFLAG tag was used to generate custom adenoviruses as previously described. Adeno-CMV-Luciferase (Ad-Luc) from Vector Biolabs was used as a negative control. Human Coronary Artery Smooth Muscle Cells (HCA-SMC) were obtained from Lonza and expanded in Lonza SmGM-2 media in 15 cm tissue culture plates. Twenty-four hours before media collection, near confluent plates were transduced with 50 MOI adenovirus and switched to Lonza Basal SM media with volumes of 20 ml per 15 cm plate. Expression of the Flag tagged ADAMTS7 was confirmed from the media using western blot and detected using the anti-Flag M2-HRP antibody (Sigma, A8592). Collected media was processed by adding protease inhibitors (1 mM EDTA and 1 mM PMSF) and clarified by 500 g×5 min spin at 4 C to pellet cell debris. Cell media supernatants were then passed through a 0.22 um filter and kept chilled. Processed media was then concentrated 50-100× using 3 kDa Centricon Plus-70 filter unit, spun at 3,500 g×60 min at 4 C. Approximately 10% of the processed, concentrated media was set aside for total secretome proteolytic analysis. The remaining 90% of the processed, concentrated media was buffer exchanged into 50 mM HEPES pH 8.0, 150 mM NaCl (2×50 ml) using the 3 kDa Centricon Plus-70 filter unit and concentrated to >2 mg/ml to serve as input for the TAILS experiment. Secretome and TAILS input samples were stored at −80° C.
For the first experiment, referred to as SMC1, 120 ml of media from 6×15 cm dishes was pooled from each condition (Luc, WT, EQ) and processed to produce three separate inputs for the TAILS experiment. Luc, WT and EQ inputs from the SMC1 experiment were each divided into triplicate 400 ug samples to generate technical replicate TAILS data. For the second experiment, referred to as SMC2, media was processed separately in triplicate for each condition (Luc1, Luc2, Luc3, WT1, WT2, WT3, EQ1, EQ2, EQ3) using 60 ml of media from 3×15 cm dishes for each process replicate. Inputs from the SMC2 experiment used process replicates of 300 ug each to generate TAILS data. The third experiment used input from cultured Human umbilical vein endothelial cells (HUVEC) from Lifeline Cell Technology grown in VascuLife Media and transduced in Lifeline Basal EC (+bFGF2 10 ng/ml). The HUVEC experiment used the same strategy as the SMC2 experiment, with 40 ml of media from 2×15 cm dishes for each process replicate and used 200 ug each to generate TAILS data. Inputs for process replicate experiments were restricted to the lowest concentration from the 9 parallel samples for SMC2 or HUVEC.
TMT10 isotopic labeling and negative selection of non-labeled peptides-Sample preparation was performed based on the TAILS protocol from the Overall lab with some modifications. From a single experiment, nine parallel protein samples in 50 mM HEPES pH 8.0, 150 mM NaCl were separately denatured with guanidinium chloride (Sigma, G4505) to reach a final concentration of 2.5M guanidinium chloride and 250 mM HEPES and incubated at 65° C. for 15 min. Reduction was achieved through addition of tris(2-carboxylethyl) phosphine (TCEP) at a final concentration of […] and incubated at 65° C. for 45 min. Alkylation reaction was performed with addition of iodoacetamide (IAA, Sigma, A3221) to a final concentration of 10 mM IAA for 15 min at room temperature in the dark. Following denaturation, reduction and alkylation steps, ten percent of each of the nine parallel protein samples was removed and combined to serve as a pooled reference. Isobaric tags were added to free amine groups using the TMT10plex Isobaric Mass Tagging Kit (ThermoFisher, 90113) with TMT channels randomly assigned to the nine samples and TMT 131 assigned to the pooled reference. […]
The substance “LOXL1_219 (VASAGVIYPYQPR; listed as Homo sapiens)” came in with a logFC.mWT.over.mEQ of 1.47.

“LOXL2_37 (FQQPAPEYHQPQAPANVAKIQLR; listed as Homo sapiens)” came in with a logFC.mWT.over.mEQ of 3.30. In the case of “LOXL2_38 ([code q]QPAPEYHQPQAPANVAKIQLR; not fully specified; listed as Homo sapiens)”, the logFC.mWT.over.mEQ is 1.68. The substance “LTBP1_393 (LTATNFR; listed as Homo sapiens)” came in with a logFC.mWT.over.mEQ of 6.30. “LTBP1_540 (HQQVIPHVYPVAAKTQLGR; listed as Homo sapiens)” had a logFC.mWT.over.mEQ of 1.77.

The same assay, now with this note: SMC2_TAILS HC; log fold change, mWT over mEQ.
With “AEBP1_37 (FLEGFLSELEPEPR; listed as Homo sapiens)”, the logFC.mWT.over.mEQ was found to be 3.48.

“CCDC80_66 (LEEPNLQPLQR; listed as Homo sapiens)” gave a logFC.mWT.over.mEQ of 2.21. Consider “EFEMP1_124 (AVAGPEMQTGR; listed as Homo sapiens)”, for which the logFC.mWT.over.mEQ turned out to be 3.27. On the same count and under the same terms, with “EFEMP1_125 (VAGPEMQTGR; listed as Homo sapiens)” the figure was 2.42.

Consider “FBLN2_259 (ALGPPAPVQAKAR; listed as Homo sapiens)”, for which the logFC.mWT.over.mEQ worked out at 1.88. On the same count and under the same terms, with “FBLN2_260 (LGPPAPVQAKAR; listed as Homo sapiens)” the figure was 2.42; with “FBN1_29 (LEAGNVKETR; listed as Homo sapiens)”, 3.57. Same read-out and setting: with “FBN1_53 (LKGPNVCGSR; listed as Homo sapiens)” the figure was 4.89; with “FLNA_1285 (LTQTGGPHVKAR; listed as Homo sapiens)”, 5.72; with “FN1_36 (MVQPQSPVAVSQSKPGCYDNGKHYQINQQWER; listed as Homo sapiens)”, 3.69. In turn, “FN1_40 (QSPVAVSQSKPGCYDNGKHYQINQQWER; listed as Homo sapiens)” returned a logFC.mWT.over.mEQ of 2.66. On the same count and under the same terms, with “FN1_1143 (LTPGVEYVYTIQVLR; listed as Homo sapiens)” the figure was 2.80. On the same count and under the same terms, with “FN1_1656 (SSSPVTGYR; listed as Homo sapiens)” the figure was 1.86; with “GSN_413 (HIANVER; listed as Homo sapiens)”, 1.74; with “HSPG2_275 (LLPGSVR; listed as Homo sapiens)”, 2.10. In the case of “HSPG2_2331 (ANLAYPAGSTQPIR; listed as Homo sapiens)”, the logFC.mWT.over.mEQ worked out at 1.91.

As to “HSPG2_2333 (LAYPAGSTQPIR; listed as Homo sapiens)”, the logFC.mWT.over.mEQ was 1.41. Substance “IGFBP3_31 (SAGLGPVVR; listed as Homo sapiens)” gave a logFC.mWT.over.mEQ of 2.44.

On to “IGFBP3_32 (AGLGPVVR; listed as Homo sapiens)”, for which the logFC.mWT.over.mEQ came to 5.18. The same measure, in the same setting: with “IGFBP7_101 (AAGGPGVSGVCVCKSR; listed as Homo sapiens)” the figure was 2.57; with “LOX_58 (LSLGSQYQPQR; listed as Homo sapiens)”, 1.77.

In turn, “LOX_123 (HWFQAGYSTSR; listed as Homo sapiens)” registered a logFC.mWT.over.mEQ of 1.37. Same read-out and setting: with “LOX_124 (WFQAGYSTSR; listed as Homo sapiens)” the figure was 3.45; with “LOX_126 (QAGYSTSR; listed as Homo sapiens)”, 3.03.
